Data: patent publication US7238701B2, “Substituted tetrahydrobenzothienopyrimidinamine compounds useful for treating hyper-proliferative disorders” (Bayer Pharmaceuticals Corporation, priority 2003, dated 2007)

Experiments:
[1] = tested on: BT474 (human breast carcinoma); experiment: In vitro tumor cell proliferation assay (Cell Titer-Glo luminescent cell viability), BT474 cells; format: cell-based; details: BT-474, 72 hours drug exposure, 10% Fetal Bovine Serum, ATP luminescence readout, read-out: IC50 (50% inhibition of cell proliferation)
Method in brief: (§1)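 ATP luminescence (CellTiter-Glo) measured proliferation after 72 h compound exposure at 37 °C, giving IC50 values. Serial dilutions spanning 64 pM–100 μM in 0.1% DMSO were applied one day after plating 2.5×10^3 cells/well in RPMI plus 10% fetal bovine serum.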

[2] = tested on: A431cells (human epidermoid carcinoma); experiment: In vitro tumor cell proliferation assay (Cell Titer-Glo luminescent cell viability), A431 cells; format: cell-based; details: A-431, 72 h, 72 hours drug exposure, 10% Fetal Bovine Serum, ATP luminescence readout, read-out: IC50 (50% inhibition of cell proliferation)
Method in brief: as §1

| Compound | IC50 [1] | IC50 [2] |
| --- | --- | --- |
| CN(C)CCCCNCCC1CCc2c(sc3ncnc(Nc4ccc5c(cnn5Cc5ccccc5)c4)c23)C1 (centres unmarked) [Example 212, N′-(2-{4-[(1-benzyl-1H-indazol-5-yl)amino]-5,6,7,8-tetrahydro[1]benzothieno[2,3-d]pyrimidin-7-yl}ethyl)-N,N-dimethylbutane-1,4-diamine] | < 5 µM | < 5 µM |
| CCOC(=O)CC1CCc2c(sc3ncnc(Nc4ccc(Oc5ccc(C)nc5)c(C)c4)c23)C1 (centres unmarked) [Example 213, ethyl [4-({3-methyl-4-[(6-methylpyridin-3-yl)oxy]phenyl}amino)-5,6,7,8-tetrahydro[1]benzothieno[2,3-d]pyrimidin-7-yl]acetate] | < 50 µM | < 50 µM |
| Cc1ccc(Oc2ccc(Nc3ncnc4sc5c(c34)CCC(CCO)C5)cc2C)cn1 (centres unmarked) [Example 214, 2-{4-[3-Methyl-4-(6-methyl-pyridin-3-yloxy)-phenylamino]-5,6,7,8-tetrahydro-benzo[4,5]thieno[2,3-d]pyrimidin-7-yl}-ethanol] | < 5 µM | < 50 µM |
| Cc1ccc(Oc2ccc(Nc3ncnc4sc5c(c34)CCC(CCOS(C)(=O)=O)C5)cc2C)cn1 (centres unmarked) [Example 215, 2-[4-({3-methyl-4-[(6-methylpyridin-3-yl)oxy]phenyl}amino)-5,6,7,8-tetrahydro[1]benzothieno[2,3-d]pyrimidin-7-yl]ethyl methanesulfonate] | < 5 µM | < 50 µM |
| COCCN(C)CCC1CCc2c(sc3ncnc(Nc4ccc(Oc5ccc(C)nc5)c(C)c4)c23)C1 (centres unmarked) [Example 218, 7-{2-[(2-methoxyethyl)(methyl)amino]ethyl}-N-{3-methyl-4-[(6-methylpyridin-3-yl)oxy]phenyl}-5,6,7,8-tetrahydro[1]benzothieno[2,3-d]pyrimidin-4-amine] | < 5 µM | < 50 µM |
| Cc1ccc(Oc2ccc(Nc3ncnc4sc5c(c34)CCC(CCNCCS(C)(=O)=O)C5)cc2C)cn1 (centres unmarked) [Example 219, N-{3-methyl-4-[(6-methylpyridin-3-yl)oxy]phenyl}-7-(2-{[2-(methylsulfonyl)ethyl]amino}ethyl)-5,6,7,8-tetrahydro[1]benzothieno[2,3-d]pyrimidin-4-amine] | < 5 µM | < 50 µM |
| Cc1ccc(Oc2ccc(Nc3ncnc4sc5c(c34)CCC(CCNCCN3CCOCC3)C5)cc2C)cn1 (centres unmarked) [Example 220, N-{3-methyl-4-[(6-methylpyridin-3-yl)oxy]phenyl}-7-{2-[(2-morpholin-4-ylethyl)amino]ethyl}-5,6,7,8-tetrahydro[1]benzothieno[2,3-d]pyrimidin-4-amine] | < 5 µM | < 50 µM |
| Cc1ccc(Oc2ccc(Nc3ncnc4sc5c(c34)CCC(CCN3CCCC3)C5)cc2C)cn1 (centres unmarked) [Example 221, N-{3-methyl-4-[(6-methylpyridin-3-yl)oxy]phenyl}-7-(2-pyrrolidin-1-ylethyl)-5,6,7,8-tetrahydro[1]benzothieno[2,3-d]pyrimidin-4-amine] | < 5 µM | < 5 µM |
| Cc1ccc(Oc2ccc(Nc3ncnc4sc5c(c34)CCC(CCN(C)CCO)C5)cc2C)cn1 (centres unmarked) [Example 222, 2-(methyl{2-(4-({3-methyl-4-[(6-methylpyridin-3-yl)oxy]phenyl}amino)-5,6,7,8-tetrahydro[1]benzothieno[2,3-d]pyrimidin-7-yl]ethyl}amino)ethanol] | < 5 µM | < 5 µM |
| Cc1ccc(Oc2ccc(Nc3ncnc4sc5c(c34)CCC(CCN3CCOCC3)C5)cc2C)cn1 (centres unmarked) [Example 225, N-{3-methyl-4-[(6-methylpyridin-3-yl)oxy]phenyl}-7-(2-morpholin-4-ylethyl)-5,6,7,8-tetrahydro[1]benzothieno[2,3-d]pyrimidin-4-amine] | < 5 µM | < 50 µM |
| CN(C)CCC1CCc2c(sc3ncnc(Nc4ccc5c(cnn5Cc5ccccc5)c4)c23)C1 (centres unmarked) [Example 228, N-(1-benzyl-1H-indazol-5-yl)-7-[2-(dimethylamino)ethyl]-5,6,7,8-tetrahydro[1]benzothieno[2,3-d]pyrimidin-4-amine] | < 5 µM | < 50 µM |
| Cc1ccc(Oc2ccc(Nc3ncnc4sc5c(c34)CCC(CCNCCN(C)C)C5)cc2C)cn1 (centres unmarked) [Example 230, N,N-dimethyl-N′-{2-[4-({3-methyl-4-[(6-methylpyridin-3-yl)oxy]phenyl}amino)-5,6,7,8-tetrahydro[1]benzothieno[2,3-d]pyrimidin-7-yl]ethyl}ethane-1,2-diamine] | < 5 µM | < 5 µM |
| Cc1ccc(Oc2ccc(Nc3ncnc4sc5c(c34)CCC(CCN3CCC(O)C3)C5)cc2C)cn1 (centres unmarked) [Example 233, 1-{2-[4-({3-methyl-4-[(6-methylpyridin-3-yl)oxy]phenyl}amino)-5,6,7,8-tetrahydro[1]benzothieno[2,3-d]pyrimidin-7-yl]ethyl}pyrrolidin-3-ol] | < 5 µM | < 50 µM |
| Cc1ccc(Oc2ccc(Nc3ncnc4sc5c(c34)CCC(CCN3CCCC3C)C5)cc2C)cn1 (centres unmarked) [Example 234, N-{3-methyl-4-[(6-methylpyridin-3-yl)oxy]phenyl}-7-[2-(2-methylpyrrolidin-1-yl)ethyl]-5,6,7,8-tetrahydro[1]benzothieno[2,3-d]pyrimidin-4-amine] | < 5 µM | < 50 µM |
| Cc1ccc(Oc2ccc(Nc3ncnc4sc5c(c34)CCC(CCN3C(C)CCC3C)C5)cc2C)cn1 (centres unmarked) [Example 235] | < 5 µM | < 50 µM |
| OC1CCN(CCC2CCc3c(sc4ncnc(Nc5ccc6c(cnn6Cc6ccccc6)c5)c34)C2)C1 (centres unmarked) [Example 237, 1-(2-{4-[(1-benzyl-1H-indazol-5-yl)amino]-5,6,7,8-tetrahydro[1]benzothieno[2,3-d]pyrimidin-7-yl}ethyl)pyrrolidin-3-ol] | < 5 µM | < 50 µM |

Next, values leading:

| IC50 [1] | IC50 [2] | Compound |
| --- | --- | --- |
| < 5 µM | < 50 µM | COCCNCCC1CCc2c(sc3ncnc(Nc4ccc(Oc5ccc(C)nc5)c(C)c4)c23)C1 (centres unmarked) [Example 216, 7-{2-[(2-methoxyethyl)amino]ethyl}-N-{3-methyl-4-[(6-methylpyridin-3-yl)oxy]phenyl}-5,6,7,8-tetrahydro[1]benzothieno[2,3-d]pyrimidin-4-amine] |
| < 5 µM | < 50 µM | Cc1ccc(Oc2ccc(Nc3ncnc4sc5c(c34)CCC(CCNCCO)C5)cc2C)cn1 (centres unmarked) [Example 217, 2-({2-[4-({3-methyl-4-[(6-methylpyridin-3-yl)oxy]phenyl}amino)-5,6,7,8-tetrahydro[1]benzothieno[2,3-d]pyrimidin-7-yl]ethyl}amino)ethanol] |
| < 5 µM | < 5 µM | Cc1ccc(Oc2ccc(Nc3ncnc4sc5c(c34)CCC(CCN3CCC(N(C)C)C3)C5)cc2C)cn1 (centres unmarked) [Example 223, 7-{2-[3-(dimethylamino)pyrrolidin-1-yl]ethyl}-N-{3-methyl-4-[(6-methylpyridin-3-yl)oxy]phenyl}-5,6,7,8-tetrahydro[1]benzothieno[2,3-d]pyrimidin-4-amine] |
| < 5 µM | < 5 µM | Cc1ccc(Oc2ccc(Nc3ncnc4sc5c(c34)CCC(CCN3CCN(C)CC3)C5)cc2C)cn1 (centres unmarked) [Example 224, N-{3-methyl-4-[(6-methylpyridin-3-yl)oxy]phenyl}-7-[2-(4-methylpiperazin-1-yl)ethyl]-5,6,7,8-tetrahydro[1]benzothieno[2,3-d]pyrimidin-4-amine] |
| < 5 µM | < 50 µM | Cc1ccc(Oc2ccc(Nc3ncnc4sc5c(c34)CCC(CCN(C)C)C5)cc2C)cn1 (centres unmarked) [Example 226] |
| < 5 µM | < 50 µM | CN1CCN(CCC2CCc3c(sc4ncnc(Nc5ccc6c(cnn6Cc6ccccc6)c5)c34)C2)CC1 (centres unmarked) [Example 227, N-(1-benzyl-1H-indazol-5-yl)-7-[2-(4-methylpiperazin-1-yl)ethyl]-5,6,7,8-tetrahydro[1]benzothieno[2,3-d]pyrimidin-4-amine] |
| < 5 µM | < 50 µM | CNCCC1CCc2c(sc3ncnc(Nc4ccc5c(cnn5Cc5ccccc5)c4)c23)C1 (centres unmarked) [Example 229, N-(1-benzyl-1H-indazol-5-yl)-7-[2-(methylamino)ethyl]-5,6,7,8-tetrahydro[1]benzothieno[2,3-d]pyrimidin-4-amine] |
| < 5 µM | < 50 µM | Cc1ccc(Oc2ccc(Nc3ncnc4sc5c(c34)CCC(CCN(CCO)CCO)C5)cc2C)cn1 (centres unmarked) [Example 231, 2,2′-({2-[4-({3-methyl-4-[(6-methylpyridin-3-yl)oxy]phenyl}amino)-5,6,7,8-tetrahydro[1]benzothieno[2,3-d]pyrimidin-7-yl]ethyl}imino)diethanol] |
| < 5 µM | < 50 µM | CNCCC1CCc2c(sc3ncnc(Nc4ccc(Oc5ccc(C)nc5)c(C)c4)c23)C1 (centres unmarked) [Example 232, 7-[2-(methylamino)ethyl]-N-{3-methyl-4-[(6-methylpyridin-3-yl)oxy]phenyl}-5,6,7,8-tetrahydro[1]benzothieno[2,3-d]pyrimidin-4-amine] |
| < 5 µM | < 50 µM | Cc1ccc(Oc2ccc(Nc3ncnc4sc5c(c34)CCC(CCN3CCCCC3)C5)cc2C)cn1 (centres unmarked) [Example 236, N-{3-methyl-4-[(6-methylpyridin-3-yl)oxy]phenyl}-7-(2-piperidin-1-ylethyl)-5,6,7,8-tetrahydro[1]benzothieno[2,3-d]pyrimidin-4-amine] |
| < 5 µM | < 50 µM | CC1CCCN1CCC1CCc2c(sc3ncnc(Nc4ccc5c(cnn5Cc5ccccc5)c4)c23)C1 (centres unmarked) [Example 238, N-(1-benzyl-1H-indazol-5-yl)-7-[2-(2-methylpyrrolidin-1-yl)ethyl]-5,6,7,8-tetrahydro[1]benzothieno[2,3-d]pyrimidin-4-amine] |
| < 5 µM | < 50 µM | c1ccc(Cn2ncc3cc(Nc4ncnc5sc6c(c45)CCC(CCN4CCCCC4)C6)ccc32)cc1 (centres unmarked) [Example 239, (1-Benzyl-1H-indazol-5-yl)-[7-(2-piperidine-1-yl-ethyl)-5,6,7,8-tetrahydro-benzo[4,5]thieno[2,3-d]pyrimidin-4-yl]-amine] |
